Assay results taken from patent US8192962B2, “Processes for detecting toxic substances” (Daikin Industries, Ltd., priority 2001, dated 2012).

Test system: Energy system protein genes
Assay: DNA chip mRNA expression in yeast, energy system protein genes (Table 4)
Format: cell-based, Saccharomyces cerevisiae S288C
In short: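 Whole-genome yeast DNA chip hybridization (65° C., >12 h) of Cy-labeled cDNA from S288C cells exposed 2 h at 25° C. to a sub-lethal toxicant dose in YPD; value is intensity relative to chemical-free control.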

CN(C)C(=S)SSC(=S)N(C)C [(10), Tetramethylthiuram disulfide] was tested, and the “The level of expressed mRNA in the presence of chemical substance/The level of expressed mRNA in the absence of chemical substance” value (yeast gene YAL060W) was 2.5, the “The level of expressed mRNA in the presence of chemical substance/The level of expressed mRNA in the absence of chemical substance” value (yeast gene YBL058W, cells incubated two hours with the chemical substance) was 2.1 and the “The level of expressed mRNA in the presence of chemical substance/The level of expressed mRNA in the absence of chemical substance” value (yeast gene YBL099W, cells incubated two hours with the chemical substance) was 0.7. The “The level of expressed mRNA in the presence of chemical substance/The level of expressed mRNA in the absence of chemical substance” value (yeast gene YBR001C, cells incubated two hours with the chemical substance) was 2.1, the “The level of expressed mRNA in the presence of chemical substance/The level of expressed mRNA in the absence of chemical substance” value (yeast gene YBR185C, cells incubated two hours with the chemical substance) was 1.6 and the “The level of expressed mRNA in the presence of chemical substance/The level of expressed mRNA in the absence of chemical substance” value (yeast gene YBR221C, cells incubated two hours with the chemical substance) was 1.3. The “The level of expressed mRNA in the presence of chemical substance/The level of expressed mRNA in the absence of chemical substance” value (yeast gene YCL040W) was 3.0, the “The level of expressed mRNA in the presence of chemical substance/The level of expressed mRNA in the absence of chemical substance” value (yeast gene YCR012W) was 1.5 and the “The level of expressed mRNA in the presence of chemical substance/The level of expressed mRNA in the absence of chemical substance” value (yeast gene YCR046C, cells incubated two hours with the chemical substance) was 1.4. The “The level of expressed mRNA in the presence of chemical substance/The level of expressed mRNA in the absence of chemical substance” value (yeast gene YCR105W, cells incubated two hours with the chemical substance) was 3.9, the “The level of expressed mRNA in the presence of chemical substance/The level of expressed mRNA in the absence of chemical substance” value (yeast gene YDL021W) was 7.4 and the “The level of expressed mRNA in the presence of chemical substance/The level of expressed mRNA in the absence of chemical substance” value (yeast gene YDL067C, cells incubated two hours with the chemical substance) was 0.9. For the same compound, the “The level of expressed mRNA in the presence of chemical substance/The level of expressed mRNA in the absence of chemical substance” value (yeast gene YDL078C, cells incubated two hours with the chemical substance) was 1.0, the “The level of expressed mRNA in the presence of chemical substance/The level of expressed mRNA in the absence of chemical substance” value (yeast gene YDL107W, cells incubated two hours with the chemical substance) was 1.8 and the “The level of expressed mRNA in the presence of chemical substance/The level of expressed mRNA in the absence of chemical substance” value (yeast gene YDL174C) was 1.7. The “The level of expressed mRNA in the presence of chemical substance/The level of expressed mRNA in the absence of chemical substance” value (yeast gene YDL181W, cells incubated two hours with the chemical substance) was 0.8, the “The level of expressed mRNA in the presence of chemical substance/The level of expressed mRNA in the absence of chemical substance” value (yeast gene YDR001C) was 3.0 and the “The level of expressed mRNA in the presence of chemical substance/The level of expressed mRNA in the absence of chemical substance” value (yeast gene YDR050C, cells incubated two hours with the chemical substance) was 1.3. For the same compound, the “The level of expressed mRNA in the presence of chemical substance/The level of expressed mRNA in the absence of chemical substance” value (yeast gene YDR079W, cells incubated two hours with the chemical substance) was 0.8, the “The level of expressed mRNA in the presence of chemical substance/The level of expressed mRNA in the absence of chemical substance” value (yeast gene YDR178W, cells incubated two hours with the chemical substance) was 0.8 and the “The level of expressed mRNA in the presence of chemical substance/The level of expressed mRNA in the absence of chemical substance” value (yeast gene YDR231C) was 1.4. The “The level of expressed mRNA in the presence of chemical substance/The level of expressed mRNA in the absence of chemical substance” value (yeast gene YDR298C, cells incubated two hours with the chemical substance) was 1.6, the “The level of expressed mRNA in the presence of chemical substance/The level of expressed mRNA in the absence of chemical substance” value (yeast gene YDR377W, cells incubated two hours with the chemical substance) was 0.9 and the “The level of expressed mRNA in the presence of chemical substance/The level of expressed mRNA in the absence of chemical substance” value (yeast gene YDR529C, cells incubated two hours with the chemical substance) was 0.6. The “The level of expressed mRNA in the presence of chemical substance/The level of expressed mRNA in the absence of chemical substance” value (yeast gene YEL024W, cells incubated two hours with the chemical substance) was 0.6, the “The level of expressed mRNA in the presence of chemical substance/The level of expressed mRNA in the absence of chemical substance” value (yeast gene YEL039C, cells incubated two hours with the chemical substance) was 1.2 and the “The level of expressed mRNA in the presence of chemical substance/The level of expressed mRNA in the absence of chemical substance” value (yeast gene YER178W) was 1.3. The “The level of expressed mRNA in the presence of chemical substance/The level of expressed mRNA in the absence of chemical substance” value (yeast gene YFL057C) was 46.1, the “The level of expressed mRNA in the presence of chemical substance/The level of expressed mRNA in the absence of chemical substance” value (yeast gene YFR053C) was 1.1 and the “The level of expressed mRNA in the presence of chemical substance/The level of expressed mRNA in the absence of chemical substance” value (yeast gene YGL018C, cells incubated two hours with the chemical substance) was 1.4. For the same compound, the “The level of expressed mRNA in the presence of chemical substance/The level of expressed mRNA in the absence of chemical substance” value (yeast gene YGL062W) was 2.5, the “The level of expressed mRNA in the presence of chemical substance/The level of expressed mRNA in the absence of chemical substance” value (yeast gene YGL187C, cells incubated two hours with the chemical substance) was 0.6 and the “The level of expressed mRNA in the presence of chemical substance/The level of expressed mRNA in the absence of chemical substance” value (yeast gene YGL191W, cells incubated two hours with the chemical substance) was 1.3. For the same compound, the “The level of expressed mRNA in the presence of chemical substance/The level of expressed mRNA in the absence of chemical substance” value (yeast gene YGL205W, cells incubated two hours with the chemical substance) was 0.6, the “The level of expressed mRNA in the presence of chemical substance/The level of expressed mRNA in the absence of chemical substance” value (yeast gene YGL256W, cells incubated two hours with the chemical substance) was 1.2 and the “The level of expressed mRNA in the presence of chemical substance/The level of expressed mRNA in the absence of chemical substance” value (yeast gene YGR008C) was 2.4. The “The level of expressed mRNA in the presence of chemical substance/The level of expressed mRNA in the absence of chemical substance” value (yeast gene YGR043C) was 8.4, the “The level of expressed mRNA in the presence of chemical substance/The level of expressed mRNA in the absence of chemical substance” value (yeast gene YGR062C, cells incubated two hours with the chemical substance, 25° C., YPD medium) was 1.4 and the “The level of expressed mRNA in the presence of chemical substance/The level of expressed mRNA in the absence of chemical substance” value (yeast gene YGR087C, cells incubated two hours with the chemical substance) was 0.9. The “The level of expressed mRNA in the presence of chemical substance/The level of expressed mRNA in the absence of chemical substance” value (yeast gene YGR174C, cells incubated two hours with the chemical substance) was 0.7, the “The level of expressed mRNA in the presence of chemical substance/The level of expressed mRNA in the absence of chemical substance” value (yeast gene YGR192C) was 1.3 and the “The level of expressed mRNA in the presence of chemical substance/The level of expressed mRNA in the absence of chemical substance” value (yeast gene YGR207C) was 2.6. The “The level of expressed mRNA in the presence of chemical substance/The level of expressed mRNA in the absence of chemical substance” value (yeast gene YGR244C) was 1.1, the “The level of expressed mRNA in the presence of chemical substance/The level of expressed mRNA in the absence of chemical substance” value (yeast gene YGR254W) was 1.2 and the “The level of expressed mRNA in the presence of chemical substance/The level of expressed mRNA in the absence of chemical substance” value (yeast gene YGR256W) was 2.5. For the same compound, the “The level of expressed mRNA in the presence of chemical substance/The level of expressed mRNA in the absence of chemical substance” value (yeast gene YHL008C) was 1.7, the “The level of expressed mRNA in the presence of chemical substance/The level of expressed mRNA in the absence of chemical substance” value (yeast gene YHR179W) was 5.8 and the “The level of expressed mRNA in the presence of chemical substance/The level of expressed mRNA in the absence of chemical substance” value (yeast gene YIL160C) was 3.8. For the same compound, the “The level of expressed mRNA in the presence of chemical substance/The level of expressed mRNA in the absence of chemical substance” value (yeast gene YIL172C) was 7.1, the “The level of expressed mRNA in the presence of chemical substance/The level of expressed mRNA in the absence of chemical substance” value (yeast gene YIR031C, cells incubated two hours with the chemical substance) was 1.0 and the “The level of expressed mRNA in the presence of chemical substance/The level of expressed mRNA in the absence of chemical substance” value (yeast gene YJL052W) was 2.0. For the same compound, the “The level of expressed mRNA in the presence of chemical substance/The level of expressed mRNA in the absence of chemical substance” value (yeast gene YJL121C, cells incubated two hours with the chemical substance) was 0.4 and the “The level of expressed mRNA in the presence of chemical substance/The level of expressed mRNA in the absence of chemical substance” value (yeast gene YJL166W, cells incubated two hours with the chemical substance) was 1.2.
